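Step 1: Grow cells in 96-well plates. Step 2: Expose to compound for 48 hours at 5 concentrations. Step 3: Interpolate endpoints linearly; if unreached, use highest concentration. Abbreviation: GI50, concentration required for 50% inhibition of growth. TGI marks complete inhibition of growth.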

Some test systems named below: IGROV1 ovarian; MDA-MB-231 breast; OVCAR-8 ovarian; RPMI-8226 leukemia; SF-295 CNS; SF-539 CNS; SNB-19 CNS; SNB-75 CNS; UO-31 renal; SN12C renal.
Assay in all cases: DTP human tumour cell line panel, 48 h

Usually GI50 stands for the concentration at which growth is held to half of that of the control. One may read the TGI as the concentration giving total growth inhibition. For `Cn1cc(-c2cc(-c3cn(C)c4ccc(Cl)cc34)[nH]n2)c2cc(Cl)ccc21`, the GI50 is 2.55 µM in the experiment with IGROV1 ovarian; 2.95 µM with MDA-MB-231 breast; 4.03 µM in the experiment with OVCAR-8 ovarian; 6.79 µM in the experiment on RPMI-8226 leukemia; 2.52 µM in the experiment on SF-295 CNS; 1.81 µM in the experiment on SF-539 CNS. Also, the values for the GI50 in the experiment on SNB-19 CNS, in the experiment with SNB-75 CNS and with UO-31 renal were 4.09 µM, 4.25 µM and 3.01 µM, respectively. Besides, the TGI was 6.37 µM in the experiment on IGROV1 ovarian; 15.1 µM in the experiment on MDA-MB-231 breast; 19.8 µM with OVCAR-8 ovarian; above 100 µM in the experiment on RPMI-8226 leukemia; 8.65 µM in the experiment with SF-295 CNS; 3.46 µM in the experiment with SF-539 CNS. In addition, the total growth inhibition concentration (TGI) in the experiment on SNB-19 CNS was 20.1 µM; in the experiment with SNB-75 CNS it was 30.6 µM; in the experiment on UO-31 renal, 14.8 µM.
Consider `COc1ccc2c(c1)CN([C@@H](C)[C@H]1CC[C@H]3[C@@H]4CC[C@H]5C[C@@H](O)CC[C@]5(C)[C@H]4CC[C@]13C)CO2`, for which the TGI in the experiment with IGROV1 ovarian was 14.6 µM; in the experiment on MDA-MB-231 breast, 5.19 µM; with OVCAR-8 ovarian, above 24.1 µM; with RPMI-8226 leukemia, 1.97 µM; with SF-295 CNS, 2.98 µM; in the experiment with SF-539 CNS, 3.33 µM. Further, the TGI came out at 22.6 µM in the experiment with SN12C renal, 4.1 µM in the experiment on SNB-19 CNS, 4.94 µM in the experiment on SNB-75 CNS and 3.39 µM with UO-31 renal.
Turning to `CC(NC(=O)Cc1ccc(C(F)(F)P(=O)(OCc2ccc([N+](=O)[O-])o2)N(C)CCCCCl)cc1)c1ccc(OCC2CCCCC2)c(C(N)=O)c1` (configuration not stated), the GI50 was 9.93 µM in the experiment on IGROV1 ovarian; 15.7 µM in the experiment on MDA-MB-231 breast; 12.1 µM with OVCAR-8 ovarian; 1.14 µM in the experiment on RPMI-8226 leukemia; 4.52 µM in the experiment with SF-295 CNS; 6.33 µM in the experiment on SF-539 CNS. Besides, the GI50 with SN12C renal was 5.35 µM; with SNB-19 CNS, 8.97 µM; in the experiment with SNB-75 CNS, 4.7 µM; with UO-31 renal it was 7.74 µM. In addition, the concentration for total growth inhibition (TGI) stood at 25.5 µM with IGROV1 ovarian; 35.3 µM with MDA-MB-231 breast; 41.9 µM with OVCAR-8 ovarian; 3.86 µM in the experiment with RPMI-8226 leukemia; 12.3 µM in the experiment on SF-295 CNS; 13.4 µM with SF-539 CNS. Besides, the TGI in the experiment with SN12C renal was found to be 10.9 µM; in the experiment with SNB-19 CNS, 29.7 µM; in the experiment with SNB-75 CNS, 9.97 µM; in the experiment with UO-31 renal, 21.9 µM.
As for `CC(C)(C)NCC(O)COc1c(Br)c(Br)c(Br)c2c1OC(C)(C)C2` (configuration not stated), the GI50 with IGROV1 ovarian was 1.77 µM; in the experiment with MDA-MB-231 breast, 1.54 µM; in the experiment with RPMI-8226 leukemia it was 1.45 µM; in the experiment on SF-295 CNS, 2.26 µM; in the experiment on SF-539 CNS, 1.67 µM; in the experiment with SN12C renal, 1.87 µM. Besides, the GI50 with UO-31 renal is 1.76 µM. In addition, the TGI stood at 3.36 µM in the experiment on IGROV1 ovarian; 3.01 µM in the experiment with MDA-MB-231 breast; 3.09 µM in the experiment on RPMI-8226 leukemia; 3.95 µM in the experiment on SF-295 CNS; 3.18 µM with SF-539 CNS; 3.43 µM in the experiment with SN12C renal. In the experiment on UO-31 renal, this compound had a total growth inhibition concentration (TGI) of 3.23 µM.
Regarding `CCCC1(CN2c3ccccc3Sc3ccc(Cl)cc32)CCN(CC)C1` (configuration not stated), the GI50 is 1.92 µM in the experiment on IGROV1 ovarian; 1.88 µM in the experiment on MDA-MB-231 breast; 1.78 µM with OVCAR-8 ovarian; 2.59 µM in the experiment on RPMI-8226 leukemia; 1.7 µM in the experiment with SF-295 CNS; 1.85 µM in the experiment on SF-539 CNS. In addition, the GI50 was 3.03 µM in the experiment on SN12C renal, 2 µM in the experiment on SNB-19 CNS, 1.77 µM with SNB-75 CNS and 1.51 µM with UO-31 renal. For the same compound, the TGI in the experiment on IGROV1 ovarian is 3.69 µM; in the experiment with MDA-MB-231 breast, 3.55 µM; with OVCAR-8 ovarian, 3.35 µM; in the experiment on RPMI-8226 leukemia, 5.73 µM; in the experiment on SF-295 CNS, 3.3 µM; with SF-539 CNS it was 3.61 µM. Further, the TGI with SN12C renal came to 8.74 µM; with SNB-19 CNS, 3.78 µM; in the experiment on SNB-75 CNS, 3.74 µM; with UO-31 renal, 2.97 µM.
As for `Cc1cc(NCc2cc(Nc3ccnc4cc(Cl)ccc34)ccc2F)nc(N2CCOCC2)n1`, the GI50 in the experiment on IGROV1 ovarian was 1.93 µM; in the experiment on MDA-MB-231 breast, 1.83 µM; in the experiment with OVCAR-8 ovarian, 3.07 µM; in the experiment with RPMI-8226 leukemia it was 1.81 µM; in the experiment on SN12C renal, 1.84 µM; in the experiment on SNB-19 CNS it was 3.79 µM. Further, the GI50 in the experiment with SNB-75 CNS is 1.32 µM; with UO-31 renal it was 1.3 µM. Also, the TGI with IGROV1 ovarian turned out to be 5.11 µM; in the experiment on MDA-MB-231 breast it was 4.51 µM; in the experiment with OVCAR-8 ovarian it was 13.6 µM; with RPMI-8226 leukemia, 5.58 µM; in the experiment with SN12C renal it was 4.3 µM; in the experiment with SNB-19 CNS, 54.4 µM. Further, the total growth inhibition concentration (TGI) in the experiment with SNB-75 CNS was determined as 2.79 µM; with UO-31 renal, 2.71 µM.
On to `O=C1/C(=C\c2ccco2)Oc2ccccc21`, for which the TGI in the experiment with IGROV1 ovarian, in the experiment with MDA-MB-231 breast, in the experiment with OVCAR-8 ovarian, in the experiment with RPMI-8226 leukemia, with SF-295 CNS and in the experiment on SN12C renal was above 100 µM throughout. Besides, the TGI in the experiment with SNB-19 CNS, in the experiment on SNB-75 CNS and with UO-31 renal was above 100 µM each time.
With `CN(C)N1C(=O)SCC(c2ccccc2)(c2ccccc2)C1=O`, the TGI with MDA-MB-231 breast, in the experiment on OVCAR-8 ovarian, with RPMI-8226 leukemia, in the experiment on SF-295 CNS, in the experiment with SF-539 CNS and in the experiment on SN12C renal was above 100 µM each time. The TGI in the experiment on SNB-19 CNS, with SNB-75 CNS and in the experiment on UO-31 renal was above 100 µM each time.
Turning to `NC(=O)c1cccnc1`, the GI50 in the experiment with MDA-MB-231 breast, in the experiment with OVCAR-8 ovarian, in the experiment with RPMI-8226 leukemia, with SF-295 CNS, in the experiment on SF-539 CNS and in the experiment with SN12C renal was above 100 µM throughout. Further, the GI50 in the experiment on SNB-19 CNS and in the experiment with SNB-75 CNS was above 100 µM in each case. Also, the TGI in the experiment on MDA-MB-231 breast, in the experiment with OVCAR-8 ovarian, in the experiment on RPMI-8226 leukemia, in the experiment on SF-295 CNS, in the experiment with SF-539 CNS and in the experiment with SN12C renal was above 100 µM throughout. In addition, the TGI with SNB-19 CNS and in the experiment with SNB-75 CNS was above 100 µM throughout.
